From ChEMBL document CHEMBL5107977, “Inhibition of MARK4 by serotonin as an attractive therapeutic approach to combat Alzheimer's disease and neuroinflammation” (RSC Med Chem, 2022)

Columns and labels:
[1] = target: T1, MAP/microtubule affinity-regulating kinase 4 (Homo sapiens) (UniProt Q96L34); assay: Binding affinity to MARK4 (unknown origin) assessed as Gibbs free energy change by MM-GBSA method
T1 sequence (whole entry): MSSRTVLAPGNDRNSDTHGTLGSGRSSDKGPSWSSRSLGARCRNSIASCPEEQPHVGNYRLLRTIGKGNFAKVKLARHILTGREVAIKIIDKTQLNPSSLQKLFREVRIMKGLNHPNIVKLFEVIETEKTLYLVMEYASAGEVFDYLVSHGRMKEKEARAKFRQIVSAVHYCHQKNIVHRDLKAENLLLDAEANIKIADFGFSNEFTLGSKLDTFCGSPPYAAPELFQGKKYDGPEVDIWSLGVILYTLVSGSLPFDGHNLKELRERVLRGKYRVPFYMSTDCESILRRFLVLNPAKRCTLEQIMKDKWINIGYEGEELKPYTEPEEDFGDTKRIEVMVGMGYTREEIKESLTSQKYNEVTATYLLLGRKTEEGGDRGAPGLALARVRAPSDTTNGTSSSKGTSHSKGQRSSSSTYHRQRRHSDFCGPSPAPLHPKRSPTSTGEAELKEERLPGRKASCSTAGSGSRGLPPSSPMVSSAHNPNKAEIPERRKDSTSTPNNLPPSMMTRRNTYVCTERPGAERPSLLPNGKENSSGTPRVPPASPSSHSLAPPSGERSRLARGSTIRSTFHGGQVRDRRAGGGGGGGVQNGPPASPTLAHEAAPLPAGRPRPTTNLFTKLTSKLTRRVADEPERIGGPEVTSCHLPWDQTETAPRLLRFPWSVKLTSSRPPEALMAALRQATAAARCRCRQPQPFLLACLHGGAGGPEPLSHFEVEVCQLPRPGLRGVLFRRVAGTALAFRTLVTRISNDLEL

[2] = target: T1, MAP/microtubule affinity-regulating kinase 4 (Homo sapiens); assay: Binding affinity to MARK4 (unknown origin) assessed as binding constant by fluorescence binding assay based spectroscopy
[3] = target: T1, MAP/microtubule affinity-regulating kinase 4 (Homo sapiens); assay: Binding affinity to MARK4 (unknown origin) assessed as association constant by isothermal titration calorimetry
[4] = target: T1, MAP/microtubule affinity-regulating kinase 4 (Homo sapiens); assay: Binding affinity to MARK4 (unknown origin) assessed as change in enthalpy by isothermal titration calorimetry
[5] = target: T1, MAP/microtubule affinity-regulating kinase 4 (Homo sapiens); assay: Binding affinity to MARK4 (unknown origin) assessed as change in entropy by isothermal titration calorimetry
[6] = target: T2, MAP/microtubule affinity-regulating kinase 4 (Homo sapiens, UniProt Q96L34); assay: Inhibition of MARK4 (unknown origin) ATPase activity using ATP as substrate incubated for 1.5 hr in presence of MgCl2 by Biomol green reagent based ELISA
T2 sequence (Q96L34 whole entry): T1 sequence (whole entry)

What does the source list for NCCc1c[nH]c2ccc(O)cc12 [SEROTONIN]?
deltaG [1]: -32.8 kcal/mol; K [2]: 0.3 10^6/M; Ka [3]: 148 10^4/M; deltaH [4]: -88.2 kcal/mol; deltaS [5]: -286 cal/mol/deg; IC50 [6]: 2.99 µM
